Experiments:
Assay type in all cases: biochemical
[1] = target: T1, recombinant human VAP-1 (Homo sapiens, UniProt Q16853); experiment: Activity on recombinant human VAP-1, HRP-coupled Amplex Red hydrogen peroxide assay; conditions: substrate 1 mM benzylamine; compound incubated with enzyme at 37° C. for 30 minutes; pH 7.4; read-out: Inhibitory Activity (IC50, nM) human VAP-1
T1 construct: purchased R&D systems
T1 sequence (Q16853 1-763): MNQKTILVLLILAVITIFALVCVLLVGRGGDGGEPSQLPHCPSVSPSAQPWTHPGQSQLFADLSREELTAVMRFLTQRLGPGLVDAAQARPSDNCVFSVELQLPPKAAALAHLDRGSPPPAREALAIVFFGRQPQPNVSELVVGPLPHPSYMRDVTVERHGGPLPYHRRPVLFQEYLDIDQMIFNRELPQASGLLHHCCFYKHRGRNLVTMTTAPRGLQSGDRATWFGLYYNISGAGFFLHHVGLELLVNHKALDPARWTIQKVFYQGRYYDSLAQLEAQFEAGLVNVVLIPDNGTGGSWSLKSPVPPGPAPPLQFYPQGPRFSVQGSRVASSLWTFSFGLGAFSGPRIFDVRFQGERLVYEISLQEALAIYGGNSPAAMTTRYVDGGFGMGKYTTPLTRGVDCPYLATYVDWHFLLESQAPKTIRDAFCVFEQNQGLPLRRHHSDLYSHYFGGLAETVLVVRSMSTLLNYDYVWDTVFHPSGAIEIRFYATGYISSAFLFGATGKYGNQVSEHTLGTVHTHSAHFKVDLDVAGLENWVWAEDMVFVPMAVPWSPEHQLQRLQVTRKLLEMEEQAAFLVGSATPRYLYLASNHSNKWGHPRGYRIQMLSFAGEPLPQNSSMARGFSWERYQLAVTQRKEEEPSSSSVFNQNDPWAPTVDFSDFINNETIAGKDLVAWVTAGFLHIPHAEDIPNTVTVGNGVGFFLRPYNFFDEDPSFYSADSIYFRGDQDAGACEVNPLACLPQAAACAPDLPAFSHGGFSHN
Summary of the method: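 Fluorescence of resorufin formed from H2O2 (ex 544 nm, em 590 nm) was tracked for 1-2 h after adding 1 mM benzylamine, 200 uM Amplex Red and 1 U/mL HRP to enzyme pretreated with compound for 30 min at 37 °C. IC50 values derive from four-variable logistic fits.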

[2] = target: T2, recombinant human DAO (diamine oxidase) (Homo sapiens, UniProt P19801); experiment: Activity on recombinant human DAO, method similar to the VAP-1 assay; conditions: substrate 1 mM putrescine; read-out: Inhibitory Activity (IC50, nM) DAO
T2 construct: purchased R&D systems
T2 sequence (P19801 20-751): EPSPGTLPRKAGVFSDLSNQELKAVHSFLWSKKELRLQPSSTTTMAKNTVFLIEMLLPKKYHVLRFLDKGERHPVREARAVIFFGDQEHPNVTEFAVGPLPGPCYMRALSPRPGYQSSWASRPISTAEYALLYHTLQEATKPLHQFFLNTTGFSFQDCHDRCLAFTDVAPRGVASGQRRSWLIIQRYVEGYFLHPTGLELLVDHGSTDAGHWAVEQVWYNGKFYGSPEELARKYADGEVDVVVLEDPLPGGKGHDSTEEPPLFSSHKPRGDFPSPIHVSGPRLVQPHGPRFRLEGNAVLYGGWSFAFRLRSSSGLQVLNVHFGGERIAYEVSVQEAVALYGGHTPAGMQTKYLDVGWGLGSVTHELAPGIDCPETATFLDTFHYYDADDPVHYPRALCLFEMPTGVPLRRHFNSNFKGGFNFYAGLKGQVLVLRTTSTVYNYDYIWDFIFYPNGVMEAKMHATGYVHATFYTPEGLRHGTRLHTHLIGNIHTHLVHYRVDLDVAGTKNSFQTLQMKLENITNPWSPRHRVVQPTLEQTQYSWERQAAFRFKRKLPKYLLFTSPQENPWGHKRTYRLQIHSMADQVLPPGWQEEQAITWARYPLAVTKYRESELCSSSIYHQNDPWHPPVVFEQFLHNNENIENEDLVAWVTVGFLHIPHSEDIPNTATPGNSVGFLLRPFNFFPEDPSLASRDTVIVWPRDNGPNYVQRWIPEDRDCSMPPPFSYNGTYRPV
Summary of the method: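 Inhibition of recombinant human diamine oxidase (DAO, R&D systems) was assessed by the same approach as the VAP-1 assay, using 1 mM putrescine as substrate. Hydrogen peroxide formed was detected through an HRP-coupled Amplex Red reaction yielding fluorescent resorufin, read at 544 nm excitation and 590 nm emission. IC50 values came from four-parameter logistic fitting in GraphPad Prism.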

[3] = target: T3, recombinant human MAO-B (monoamine oxidase-B) (Homo sapiens, UniProt P27338); experiment: Activity on recombinant human MAO-B, method similar to the VAP-1 assay; conditions: substrate 1 mM benzylamine; read-out: Inhibitory Activity (IC50, nM) MAO-B
T3 construct: purchased Sigma-Aldrich
T3 sequence (P27338 1-520): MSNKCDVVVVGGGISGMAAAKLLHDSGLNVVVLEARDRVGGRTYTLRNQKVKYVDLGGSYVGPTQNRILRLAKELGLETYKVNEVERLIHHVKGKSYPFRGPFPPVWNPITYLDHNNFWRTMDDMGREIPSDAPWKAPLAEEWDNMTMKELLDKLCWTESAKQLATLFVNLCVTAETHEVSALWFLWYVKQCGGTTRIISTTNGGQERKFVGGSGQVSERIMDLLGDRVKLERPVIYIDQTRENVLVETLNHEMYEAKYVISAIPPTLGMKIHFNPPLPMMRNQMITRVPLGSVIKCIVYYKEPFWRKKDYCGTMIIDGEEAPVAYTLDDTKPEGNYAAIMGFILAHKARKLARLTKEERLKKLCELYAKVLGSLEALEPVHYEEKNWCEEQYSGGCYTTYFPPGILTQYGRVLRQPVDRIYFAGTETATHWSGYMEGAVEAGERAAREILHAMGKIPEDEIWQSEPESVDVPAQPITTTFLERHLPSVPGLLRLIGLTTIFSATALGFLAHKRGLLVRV
Summary of the method: (§1)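 Fluorescence (544/590 nm) of resorufin formed from Amplex Red by HRP and enzyme-generated H2O2 was followed over 1-2 h. Substrates were 0.5 mM tyramine for MAO-A and 1 mM benzylamine for MAO-B; compounds were preincubated with enzyme for 30 min at 37° C. IC50 came from four-parameter logistic fitting of signal-rate inhibition.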

[4] = target: T4, recombinant human MAO-A (monoamine oxidase-A) (Homo sapiens, UniProt P21397); experiment: Activity on recombinant human MAO-A, method similar to the VAP-1 assay; conditions: substrate 0.5 mM tyramine; read-out: Inhibitory Activity (IC50, nM) MAO-A
T4 construct: purchased Sigma-Aldrich
T4 sequence (P21397 1-527): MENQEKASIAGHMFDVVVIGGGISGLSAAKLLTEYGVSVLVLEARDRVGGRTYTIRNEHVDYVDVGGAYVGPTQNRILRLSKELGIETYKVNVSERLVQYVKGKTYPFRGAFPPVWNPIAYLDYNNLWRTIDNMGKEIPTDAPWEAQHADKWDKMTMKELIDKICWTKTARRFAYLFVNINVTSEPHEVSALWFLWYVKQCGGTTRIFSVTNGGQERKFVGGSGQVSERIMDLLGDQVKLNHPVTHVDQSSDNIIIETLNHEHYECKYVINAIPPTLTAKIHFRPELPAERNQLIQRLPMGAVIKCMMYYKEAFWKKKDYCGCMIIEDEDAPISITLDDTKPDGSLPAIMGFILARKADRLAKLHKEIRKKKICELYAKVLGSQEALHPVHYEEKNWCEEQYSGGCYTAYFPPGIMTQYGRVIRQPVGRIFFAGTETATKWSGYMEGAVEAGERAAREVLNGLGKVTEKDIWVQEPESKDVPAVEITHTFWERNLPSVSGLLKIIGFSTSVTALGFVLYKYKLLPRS
Summary of the method: as §1

| IC50 [1] [nM] | IC50 [2] [nM] | IC50 [3] [nM] | IC50 [4] [nM] | Structure (SMILES) |
| --- | --- | --- | --- | --- |
| 0.9 | 1200 | 410 | > 100000 | CC(=O)c1ccc(-c2ccc(Cn3cnn(C/C(=C/F)CN)c3=O)s2)cc1 [Example 180, 4-{[5-(4-acetylphenyl)thiophen-2-yl]methyl}-2-[(2E)-2-(aminomethyl)-3-fluoroprop-2-en-1-yl]-2,4-dihydro-3H-1,2,4-triazol-3-one] |
| 1.5 | 760 | 250 | > 100000 | CS(=O)(=O)c1cccc(-c2ccc(Cn3cnn(C/C(=C/F)CN)c3=O)s2)c1 [Example 181, 2-[(2E)-2-(aminomethyl)-3-fluoroprop-2-en-1-yl]-4-({5-[3-(methylsulfonyl)phenyl]thiophen-2-yl}methyl)-2,4-dihydro-3H-1,2,4-triazol-3-one] |
| 3.7 | 3600 | 6600 | > 100000 | CN(C)C(=O)c1cccc(-c2ccc(Cn3cnn(C/C(=C/F)CN)c3=O)s2)c1 [Example 182, 3-[5-({1-[(2E)-2-(aminomethyl)-3-fluoroprop-2-en-1-yl]-5-oxo-1,5-dihydro-4H-1,2,4-triazol-4-yl}methyl)thiophen-2-yl]-N,N-dimethylbenzamide] |
| 1.2 | 440 | 220 | > 100000 | CN(C)S(=O)(=O)c1cccc(-c2ccc(Cn3cnn(C/C(=C/F)CN)c3=O)s2)c1 [Example 183, 3-[5-({1-[(2E)-2-(aminomethyl)-3-fluoroprop-2-en-1-yl]-5-oxo-1,5-dihydro-4H-1,2,4-triazol-4-yl}methyl)thiophen-2-yl]-N,N-dimethylbenzenesulfonamide] |
| 3.4 | 3800 | 330 | > 100000 | NC/C(=C\F)Cn1ncn(Cc2ccc(-c3cccc(-c4cc[nH]n4)c3)s2)c1=O [Example 184, 2-[(2E)-2-(aminomethyl)-3-fluoroprop-2-en-1-yl]-4-({5-[3-(1H-pyrazol-3-yl)phenyl]thiophen-2-yl}methyl)-2,4-dihydro-3H-1,2,4-triazol-3-one] |
| 2.7 | 730 | 310 | > 100000 | CC(C)Oc1ccc(-c2ccc(Cn3cnn(C/C(=C/F)CN)c3=O)s2)cn1 [Example 185, 2-[(2E)-2-(aminomethyl)-3-fluoroprop-2-en-1-yl]-4-({5-[6-(propan-2-yloxy)pyridin-3-yl]thiophen-2-yl}methyl)-2,4-dihydro-3H-1,2,4-triazol-3-one] |
| 1.3 | 1800 | 1600 | > 100000 | Cn1cc(-c2ccc(Cn3cnn(C/C(=C/F)CN)c3=O)s2)ccc1=O [Example 187, 5-[5-({1-[(2E)-2-(aminomethyl)-3-fluoroprop-2-en-1-yl]-5-oxo-1,5-dihydro-4H-1,2,4-triazol-4-yl}methyl)thiophen-2-yl]-1-methylpyridin-2(1H)-one] |
| 4.2 | 450 | > 10000 | > 100000 | CS(=O)(=O)CCn1cc(-c2ccc(Cn3cnn(C/C(=C/F)CN)c3=O)s2)ccc1=O [Example 188, 5-[5-({1-[(2E)-2-(aminomethyl)-3-fluoroprop-2-en-1-yl]-5-oxo-1,5-dihydro-4H-1,2,4-triazol-4-yl}methyl)thiophen-2-yl]-1-[2-(methylsulfonyl)ethyl]pyridin-2(1H)-one] |
| 0.7 | 780 | 420 | 22500 | CC(=O)Nc1nc2cc(-c3ccc(Cn4cnn(C/C(=C/F)CN)c4=O)s3)ccc2s1 [Example 189, N-{5-[5-({1-[(2E)-2-(aminomethyl)-3-fluoroprop-2-en-1-yl]-5-oxo-1,5-dihydro-4H-1,2,4-triazol-4-yl}methyl)thiophen-2-yl]-1,3-benzothiazol-2-yl}acetamide] |
| 3.8 | 1800 | > 100000 | > 100000 | NC/C(=C\F)Cn1ncn(Cc2ccc(-c3cnn(C4CCNCC4)c3)s2)c1=O [Example 190, 2-[(2E)-2-(aminomethyl)-3-fluoroprop-2-en-1-yl]-4-({5-[1-(piperidin-4-yl)-1H-pyrazol-4-yl]thiophen-2-yl}methyl)-2,4-dihydro-3H-1,2,4-triazol-3-one] |
| 1.1 | 130 | 1500 | > 100000 | NC/C(=C\F)Cn1ncn(Cc2ccc(-c3ccc(=O)n(Cc4ccccc4)c3)s2)c1=O [Example 191, 5-[5-({1-[(2E)-2-(aminomethyl)-3-fluoroprop-2-en-1-yl]-5-oxo-1,5-dihydro-4H-1,2,4-triazol-4-yl}methyl)thiophen-2-yl]-1-benzylpyridin-2(1H)-one] |
| 1 | 310 | 120 | > 100000 | NC/C(=C\F)Cn1ncn(Cc2ccc(-c3ccc4nsnc4c3)s2)c1=O [Example 192, 2-[(2E)-2-(aminomethyl)-3-fluoroprop-2-en-1-yl]-4-{[5-(2,1,3-benzothiadiazol-5-yl)thiophen-2-yl]methyl}-2,4-dihydro-3H-1,2,4-triazol-3-one] |
